Among the data in article PMC10720709, “Design, synthesis, and evaluation of 4-(3-(3,5-dimethylisoxazol-4-yl)benzyl)phthalazin-1(2H)-one derivatives: potent BRD4 inhibitors with anti-breast cancer activity” (Frontiers in Pharmacology, 2023) are inhibition and melting point values, retold here.

In general, inhibition refers to the drop in the measured response relative to a control, in per cent. As usually defined, the melting point is the temperature of the solid-liquid transition.

Each structure is given as a SMILES string.

Series [1] addresses T1, recombinant BRD4 (BD1 + BD2) (Homo sapiens, UniProt O60885).
T1 construct: employing a recombinant BRD4 (BD1 + BD2) and its corresponding ligand
In words: BRD4 TR-FRET activity assay.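 Further: signal rises with BET ligand binding to the bromodomains, so inhibitors lower it, 120 min incubation at room temperature, 1% DMSO, wells lacking ligand as negative control.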 As to conditions: 1 μmol/L; read-out: BRD4 inhibition rate. It is filed as binding. Background: In TR-FRET formats the signal depends on donor and acceptor labels being close together.
Method: The BRD4 activity assay utilized TR-FRET technology, employing a recombinant BRD4 (BD1 + BD2) and its corresponding ligand. The TR-FRET signal generated in the assay is proportional to the ligand’s binding to the bromodomains. All reactions contained a final DMSO concentration of 1%. All binding reactions were conducted at room temperature. Each 20 µL reaction mixture, in assay buffer, comprised bromodomains, the BET Ligand, and the specified inhibitor amount. For the negative control, 5 µL of assay buffer replaced the BET ligand. After a 120-min incubation with the ligand, the TR-FRET signal was captured using a Tecan Infinite M1000 plate reader. IC50 values were determined through nonlinear regression with a normalized dose-response fit in Prism GraphPad software.

Turning to `Cc1ccc(CS(=O)(=O)Nc2cc(Cc3n[nH]c(=O)c4ccccc34)cc(-c3c(C)noc3C)c2)cc1` [DDT78], the inhibition at 1 µM in series [1] was 55%.
Same read-out and setting: in the case of `Cc1noc(C)c1-c1cc(Cc2n[nH]c(=O)c3ccccc23)cc(NS(=O)(=O)C(C)C)c1` [DDT54] it was 3%.
Consider `Cc1noc(C)c1-c1cc(Cc2n[nH]c(=O)c3ccccc23)cc(C(=O)NC2CCCC2)c1` [DDT03], for which the melting point was above 250 °C. In addition, the inhibition at 1 µM in series [1] is 67%.
In the case of `Cc1noc(C)c1-c1cc(Cc2n[nH]c(=O)c3ccccc23)cc(C(=O)NCc2ccccc2)c1` [DDT06], the inhibition at 1 µM in series [1] came out at 4%.
As to `Cc1noc(C)c1-c1cc(Cc2n[nH]c(=O)c3ccccc23)cc(NCc2ccc(C(F)(F)F)cc2)c1` [DDT46], the melting point was in the range of 220 to 221 °C. For the same compound, the inhibition at 1 µM in series [1] worked out at 39%.
The like results for `Cc1noc(C)c1-c1cc(Cc2n[nH]c(=O)c3ccccc23)cc(C(=O)N2CCC(O)CC2)c1` [DDT21] were, in that order, 176 to 177 °C and 19%.
Compound `Cc1noc(C)c1-c1cc(Cc2n[nH]c(=O)c3ccccc23)cc(NCc2ccccc2)c1` [DDT33] displayed a melting point of 230 to 231 °C. Further, the inhibition at 1 µM in series [1] was determined as 3%.
In the case of `CCCCS(=O)(=O)Nc1cc(Cc2n[nH]c(=O)c3ccccc23)cc(-c2c(C)noc2C)c1` [DDT52], the melting point lay in the range of 147 to 148 °C. The inhibition at 1 µM in series [1] worked out at 6%.
`COc1ccc(S(=O)(=O)Nc2cc(Cc3n[nH]c(=O)c4ccccc34)cc(-c3c(C)noc3C)c2)cc1OC` [DDT70] returned a melting point of 165 to 166 °C. Also, in series [1], the inhibition at 1 µM was found to be 32%.
In the case of `Cc1noc(C)c1-c1cc(Cc2n[nH]c(=O)c3ccccc23)cc(NCc2ccc(F)cc2)c1` [DDT35], the inhibition at 1 µM in series [1] is 3%.
In turn, `Cc1cc(C)cc(S(=O)(=O)Nc2cc(Cc3n[nH]c(=O)c4ccccc34)cc(-c3c(C)noc3C)c2)c1` [DDT60] gave a melting point of 155 to 156 °C. Further, the inhibition at 1 µM in series [1] came out at 28%.
With `Cc1cccc(CNc2cc(Cc3n[nH]c(=O)c4ccccc34)cc(-c3c(C)noc3C)c2)c1` [DDT44], the inhibition at 1 µM in series [1] was 3%.
The compound `Cc1noc(C)c1-c1cc(Cc2n[nH]c(=O)c3ccccc23)cc(C(=O)N2CCC(=O)C2)c1` [DDT12] displayed a melting point of 241 to 243 °C. In series [1], the inhibition at 1 µM was 38%.
With `Cc1noc(C)c1-c1cc(Cc2n[nH]c(=O)c3ccccc23)cc(NS(=O)(=O)c2cccc(C(F)(F)F)c2)c1` [DDT81], the inhibition at 1 µM in series [1] came out at 20%.
The compound `Cc1noc(C)c1-c1cc(Cc2n[nH]c(=O)c3ccccc23)cc(C(=O)N2CCOCC2)c1` [DDT16] registered a melting point of 241 to 242 °C. The inhibition at 1 µM in series [1] was 71%.
The like results for `Cc1noc(C)c1-c1cc(Cc2n[nH]c(=O)c3ccccc23)cc(NS(=O)(=O)c2cccc(Br)c2)c1` [DDT92] were, in that order, 147 to 148 °C and 4%.
For `Cc1noc(C)c1-c1cc(Cc2n[nH]c(=O)c3ccccc23)cc(NS(=O)(=O)c2ccccc2Br)c1` [DDT91] the same measures were 171 to 172 °C and 8%.
Compound `Cc1noc(C)c1-c1cc(Cc2n[nH]c(=O)c3ccccc23)cc(C(=O)NCc2cccnc2)c1` [DDT07] yielded a melting point above 250 °C. In series [1], the inhibition at 1 µM came out at 8%.
`Cc1noc(C)c1-c1cc(Cc2n[nH]c(=O)c3ccccc23)cc(NS(=O)(=O)c2cccc(S(C)(=O)=O)c2)c1` [DDT94] registered a melting point of 243 to 244 °C. In series [1], the inhibition at 1 µM worked out at 5%.
Consider `Cc1noc(C)c1-c1cc(Cc2n[nH]c(=O)c3ccccc23)cc(C(=O)NC2CCS(=O)(=O)CC2)c1` [DDT09], for which the inhibition at 1 µM in series [1] is 4%.
The compound `Cc1noc(C)c1-c1cc(Cc2n[nH]c(=O)c3ccccc23)cc(NCc2cccc(Cl)c2)c1` [DDT38] returned a melting point of 235 to 236 °C. Besides, the inhibition at 1 µM in series [1] came out at 8%.
Compound `Cc1noc(C)c1-c1cc(Cc2n[nH]c(=O)c3ccccc23)cc(NS(=O)(=O)c2ccc(Cl)cc2)c1` [DDT89] registered a melting point of 147 to 148 °C. For the same compound, in series [1], the inhibition at 1 µM came to 72%.
As for `Cc1noc(C)c1-c1cc(Cc2n[nH]c(=O)c3ccccc23)cc(NC(=O)c2ccc(N)cc2)c1` [DDT32], the melting point is 188 to 189 °C. In addition, the inhibition at 1 µM in series [1] turned out to be 54%.
As for `Cc1noc(C)c1-c1cc(Cc2n[nH]c(=O)c3ccccc23)cc(C(=O)N2CCn3nc(C(F)(F)F)nc3C2)c1` [DDT18], the melting point was in the range of 161 to 162 °C. Besides, the inhibition at 1 µM in series [1] was determined as 37%.
As for `Cc1noc(C)c1-c1cc(Cc2n[nH]c(=O)c3ccccc23)cc(C(=O)N2CCNCC2)c1` [DDT15], the inhibition at 1 µM in series [1] is 59%.
`CC(=O)Nc1cccc(S(=O)(=O)Nc2cc(Cc3n[nH]c(=O)c4ccccc34)cc(-c3c(C)noc3C)c2)c1` [DDT72] came in with a melting point of 192 to 193 °C. Besides, in series [1], the inhibition at 1 µM is 4%.
As to `CNC(=O)c1cc(Cc2n[nH]c(=O)c3ccccc23)cc(-c2c(C)noc2C)c1` [DDT02], the melting point was above 250 °C. In addition, the inhibition at 1 µM in series [1] was 5%.
As for `Cc1noc(C)c1-c1cc(Cc2n[nH]c(=O)c3ccccc23)cc(NS(=O)(=O)c2ccc([N+](=O)[O-])cc2)c1` [DDT83], the inhibition at 1 µM in series [1] came out at 28%.
In the case of `Cc1noc(C)c1-c1cc(Cc2n[nH]c(=O)c3ccccc23)cc(NS(=O)(=O)c2ccccc2Cl)c1` [DDT87], the melting point is 174 to 175 °C. Besides, the inhibition at 1 µM in series [1] amounted to 72%.
For `Cc1noc(C)c1-c1cc(Cc2n[nH]c(=O)c3ccccc23)cc(C(=O)N[C@H]2CC[C@@H](O)CC2)c1` [DDT11] the same measures were 214 to 215 °C and 54%.
`Cc1noc(C)c1-c1cc(Cc2n[nH]c(=O)c3ccccc23)cc(NCc2ccc([N+](=O)[O-])cc2)c1` [DDT37]: the inhibition at 1 µM in series [1] amounted to 8%.
For the compound `Cc1noc(C)c1-c1cc(Cc2n[nH]c(=O)c3ccccc23)cc(C(=O)N2CCC[C@H](O)C2)c1` [DDT19], the melting point is 157 to 158 °C. For the same compound, in series [1], the inhibition at 1 µM stood at 11%.
The like results for `Cc1noc(C)c1-c1cc(Cc2n[nH]c(=O)c3ccccc23)cc(NC(=O)c2ccccc2)c1` [DDT22] were, in that order, 173 to 174 °C and 64%.
Compound `Cc1cccc(CS(=O)(=O)Nc2cc(Cc3n[nH]c(=O)c4ccccc34)cc(-c3c(C)noc3C)c2)c1` [DDT77] had a melting point of 154 to 155 °C. Further, in series [1], the inhibition at 1 µM was determined as 38%.
The like results for `Cc1noc(C)c1-c1cc(Cc2n[nH]c(=O)c3ccccc23)cc(NC(=O)c2cccc(C(F)(F)F)c2)c1` [DDT27] were, in that order, 231 to 232 °C and 60%.
Consider `Cc1noc(C)c1-c1cc(Cc2n[nH]c(=O)c3ccccc23)cc(NCc2ccc(Br)cc2F)c1` [DDT42], for which the inhibition at 1 µM in series [1] was found to be 3%.
The same measure, in the same setting: then `Cc1noc(C)c1-c1cc(Cc2n[nH]c(=O)c3ccccc23)cc(NC(=O)c2ccc([N+](=O)[O-])cc2)c1` [DDT30], with 74%; and `Cc1noc(C)c1-c1cc(Cc2n[nH]c(=O)c3ccccc23)cc(NS(=O)(=O)c2ccccc2)c1` [DDT57], with 36%; and `Cc1cccc(S(=O)(=O)Nc2cc(Cc3n[nH]c(=O)c4ccccc34)cc(-c3c(C)noc3C)c2)c1` [DDT58], with 71%.
Regarding `Cc1noc(C)c1-c1cc(Cc2n[nH]c(=O)c3ccccc23)cc(C(=O)NC2CCOCC2)c1` [DDT08], the inhibition at 1 µM in series [1] was 11%.
Regarding `Cc1noc(C)c1-c1cc(Cc2n[nH]c(=O)c3ccccc23)cc(NS(=O)(=O)c2ccc(Br)cc2)c1` [DDT93], in series [1], the inhibition at 1 µM came out at 26%.
Same read-out and setting: then `Cc1noc(C)c1-c1cc(Cc2n[nH]c(=O)c3ccccc23)cc(C(=O)N2CC[C@@H](O)C2)c1` [DDT13], with 71%.
On the same count and under the same terms, in the case of `Cc1noc(C)c1-c1cc(Cc2n[nH]c(=O)c3ccccc23)cc(NS(=O)(=O)c2ccccc2F)c1` [DDT84] it was 14%; in that of `Cc1ccc(S(=O)(=O)Nc2cc(Cc3n[nH]c(=O)c4ccccc34)cc(-c3c(C)noc3C)c2)cn1` [DDT66], 8%; in that of `COc1ccccc1S(=O)(=O)Nc1cc(Cc2n[nH]c(=O)c3ccccc23)cc(-c2c(C)noc2C)c1` [DDT67], 24%.
On the same count and under the same terms, in the case of `Cc1noc(C)c1-c1cc(Cc2n[nH]c(=O)c3ccccc23)cc(C(=O)N2CCC[C@@H](O)C2)c1` [DDT20] it was 4%; in that of `Cc1noc(C)c1-c1cc(Cc2n[nH]c(=O)c3ccccc23)cc(NS(=O)(=O)C2CCCCC2)c1` [DDT56], 24%; in that of `Cc1noc(C)c1-c1cc(Cc2n[nH]c(=O)c3ccccc23)cc(NS(=O)(=O)c2cccc(F)c2)c1` [DDT85], 5%.
With `CC(=O)Nc1ccc(S(=O)(=O)Nc2cc(Cc3n[nH]c(=O)c4ccccc34)cc(-c3c(C)noc3C)c2)cc1` [DDT73], the inhibition at 1 µM in series [1] was found to be 38%.
Regarding `Cc1noc(C)c1-c1cc(Cc2n[nH]c(=O)c3ccccc23)cc(NS(=O)(=O)c2ccc3c(c2)OCCO3)c1` [DDT71], in series [1], the inhibition at 1 µM amounted to 67%.
The same measure, in the same setting: then `Cc1noc(C)c1-c1cc(Cc2n[nH]c(=O)c3ccccc23)cc(C(N)=O)c1` [DDT01], with 15%; and `Cc1noc(C)c1-c1cc(Cc2n[nH]c(=O)c3ccccc23)cc(NCc2cccc(F)c2)c1` [DDT34], with 3%; and `Cc1noc(C)c1-c1cc(Cc2n[nH]c(=O)c3ccccc23)cc(NS(=O)(=O)Cc2ccccc2)c1` [DDT76], with 50%.
On the same count and under the same terms, in the case of `Cc1noc(C)c1-c1cc(Cc2n[nH]c(=O)c3ccccc23)cc(NS(=O)(=O)c2ccc(Cl)cc2Cl)c1` [DDT90] it was 4%; in that of `Cc1noc(C)c1-c1cc(Cc2n[nH]c(=O)c3ccccc23)cc(NC(=O)c2ccc(C(F)(F)F)cc2)c1` [DDT28], 54%; in that of `Cc1noc(C)c1-c1cc(Cc2n[nH]c(=O)c3ccccc23)cc(NS(=O)(=O)c2ccc(C(C)C)cc2)c1` [DDT64], 69%.
For `Cc1ccc(S(=O)(=O)Nc2cc(Cc3n[nH]c(=O)c4ccccc34)cc(-c3c(C)noc3C)c2)cc1C` [DDT61], the inhibition at 1 µM in series [1] was determined as 49%.
